Values quoted from earlier work as cited in patent US20220323393A1, “COMPOSITIONS AND METHODS FOR TREATING AND/OR PREVENTING CARDIOVASCULAR DISEASE” (AMARIN PHARMACEUTICALS IRELAND LIMITED, priority 2010, published 2022).

Tested on: subjects with AAMI
Details: 50 mg, Day 21 of repeated dosing

Which results are given for `CN[C@@H](C)C/C=C/c1cncc(OC(C)C)c1` [Ispronicline]?
Benefit to Power of Attention versus placebo: 61 ms; Power of Attention, mean (SD=61.22): -32.54 ms
